Measurements published in patent publication US9850522B2, “One-step rapid assay for the detection of inhibitors of enzymes” (priority 2013, dated 2017).
Marks after values point to notes of the source that are not given here.

What was measured:
AChE from eel = molecular target: T1, AChE from eel (Electrophorus electricus, UniProt O42275); assay: AChE test ticket, fluorescence (NMI substrate), reader hue ratio; format: biochemical
T1 construct: purchased Sigma-Aldrich
Experimental: N-methyl indoxyl (NMI) acetate (100 mg, Sigma-Aldrich) was dissolved in 100 mil, 100% USP ethyl alcohol (Sigma-Aldrich) for a final concentration of […]. Strips of porous matrix Surewick Sample Pad C248 (Millipore) were saturated with this NMI solution and dried at 45° C. for two hours. The strips were then removed from the oven and stored in a resealable plastic bag with desiccant.
AChE from eel (Sigma-Aldrich) was dissolved to a final concentration of 2.2 units/mL in a buffer containing 10 mM potassium phosphate, 5% sucrose and 0.5% BSA at pH=7.4 and passed through a 0.22 μm filter. Strips of Millipore GFCP20300 glass fiber were pretreated by soaking with a mixture of 2% sucrose and 2% Triton in 6.25 mM borate buffer and dried at 45° C. in an oven for 2 hours. These glass fiber strips were then saturated with the solution of AChE and dried for 2 hours at 45° C. The strips were then removed from the oven and stored in a resealable plastic bag with desiccant.
To an adhesive-coated plastic backing, card (G&L) cut to 3×27 cm, is attached the fluid transfer membrane (nitrocellulose membrane) at a distance of 10 mm from the card bottom edge. The enzyme sample pad is attached flush to the bottom edge of the backing card overlapping the nitrocellulose membrane strip. The substrate pad is then attached flush to the other edge of the backing card (top edge), overlapping the nitrocellulose membrane. The assembled cards are then cut into 6.75 mm wide×16 mm long test strips using an automated guillotine cutter.
A stock solution (1 mg/mL) of the carbamate pesticide, oxamyl (Supelco), was prepared in methanol, then serially diluted in purified water to a final concentration of 0.1 mg/L for use as a test sample. […]
All tickets were then allowed to run for 15 minutes, then were inserted into a reader comprised of low light color cameras, 400 nm UV LED and custom color analysis software (FIG. 6). The reader calculates a ratio of the hue measured in the test sample site at the substrate pad to the hue measured in the negative control site at the substrate pad. […]

acetylcholinesterase = acetylcholinesterase (Electrophorus electricus, UniProt O42275); assay: Colorimetric test ticket, acetylcholinesterase strip; format: biochemical; settings: 1 ppm; positive result, lack of blue color
acetylcholinesterase, sequence (O42275 24-633): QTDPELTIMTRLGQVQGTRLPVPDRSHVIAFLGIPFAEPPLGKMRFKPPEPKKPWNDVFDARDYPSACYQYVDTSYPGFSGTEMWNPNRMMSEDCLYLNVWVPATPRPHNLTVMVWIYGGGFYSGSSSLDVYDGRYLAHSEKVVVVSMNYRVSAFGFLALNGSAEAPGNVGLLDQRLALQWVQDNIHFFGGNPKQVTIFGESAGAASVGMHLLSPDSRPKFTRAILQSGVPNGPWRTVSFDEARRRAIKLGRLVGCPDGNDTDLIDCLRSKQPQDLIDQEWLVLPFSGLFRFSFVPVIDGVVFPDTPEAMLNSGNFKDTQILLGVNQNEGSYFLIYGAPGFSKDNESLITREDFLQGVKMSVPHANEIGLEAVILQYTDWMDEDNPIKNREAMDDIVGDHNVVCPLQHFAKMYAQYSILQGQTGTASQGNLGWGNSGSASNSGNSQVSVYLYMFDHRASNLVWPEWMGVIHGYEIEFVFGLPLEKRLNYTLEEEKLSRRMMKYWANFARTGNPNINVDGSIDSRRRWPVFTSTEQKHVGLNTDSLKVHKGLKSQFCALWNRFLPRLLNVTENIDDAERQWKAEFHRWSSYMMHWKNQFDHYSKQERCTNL

T1 sequence (O42275 24-633): as above

CNC(=O)O/N=C(\SC)C(=O)N(C)C [Oxamyl, oxamyl]
Reactivity with AChE (AChE from eel): reacts strongly with AChE | Fluorescence hue ratio (AChE from eel; tested with AChE, 0.1 mg/L in purified water, test sample well:control well, 15 minutes run): 2.82* | Result (AChE from eel; tested with AChE, 0.1 mg/L, hue ratio cutoff of 1.25): Positive (a ratio greater than 1.25 is considered positive) | Result of colorimetric test ticket (FIG. 14 C) (acetylcholinesterase): inhibits acetylcholinesterase
